Like-named read-outs stand apart in the source and are kept apart here. Marks after values point to notes of the source that are not given here.
Columns and labels:
[1] = system: human CD34-positive endothelial progenitor cells (EPC); experiment: Pro-angiogenic test: EPC cell growth; type: cell-based; conditions: mean±SEM
Method: (§1) Endothelial cell culture: Isolation and culture of human CD34-positive endothelial progenitor cells (EPC) were performed using conventional methods (Chen et al., 2018); human umbilical vein endothelial cells (HUVECs) were purchased from Promo Cell (Heidelberg, Germany); and EPCs and HUVECs were maintained in MV2 medium according to a known protocol (Chung et al., 2013).
(§2) Measurement of cell growth: EPCs and HUVECs were cultured overnight at a density of 5×10^3 cells per well in a 96-well plate, and then, in the presence of the test specimen (that is, maca extract), the original medium was replaced with MV2 minimal medium and incubated for 48 hours. The measurements on EPC cell growth were as described in Yang et al., 2019.
(§3) The results are shown in Table 1 as below, in which corresponding results are indicated as mean±SEM (the test was repeated 3 times as a whole), wherein, compared to the control group (DSMO), * denotes p<0.05, ** denotes p<0.01, *** denotes p<0.001; and - denotes being untested.

human neutrophil [2] = experiment: Anti-neutrophil inflammation test: superoxide anion generation; type: cell-based; conditions: isolated compounds (10 μM) and positive controls 10 μM, fMLF/CB-activated neutrophils, mean±SEM; for inhibition at 10 µM: Homo sapiens, Neutrophil, read-out: Inhibition rate (%) Superoxide anion generation
Method: (§4) Isolation of human neutrophil: According to the standard scheme of […] sedimentation, neutrophils was obtained from peripheral blood, and then, the neutrophils were purified by centrifugation and erythrocyte hypotonic degradation in a Ficoll-Hypaque gradient; and then, it was confirmed by the trypan blue exclusion test that the purified neutrophils contained more than 98% live cells, and the purified neutrophils were suspended in HBSS without calcium at 4° C. (Yang et al., 2013) prior to the test.
The level of superoxide anion generation by neutrophil activation was measured and determined based on the ferrocytochrome c reduction method according to Yang et al., 2013. In other words, human neutrophil cells (6×10^5 cells/mL) were mixed with 0.6 mg/mL of ferrocytochrome c and 1 mmol/L of CaCl at 37° C., and then the cells were treated with the test specimens having different concentrations (that is, maca extract) or DMSO (0.1% as control) for 5 minutes; thereafter, 10 minutes before activation with 100 nM of fMLF, the cells were incubated with cytochalasin B (1 μg/mL) for 3 minutes, changes in absorbance according to the decrease in ferrocytochrome c at a wavelength of […] with continuous stirring were continuously monitored using a spectrophotometer, and reactions were calculated with and without superoxide dismutase (SOD, 100 U/mL) with dividing by the extinction coefficient of the decreased ferrocytochrome c (21.1 mM^−1 cm^−1) reduction, thereby obtaining the difference value.

human neutrophil [3] = experiment: Anti-neutrophil inflammation test: elastase release; type: cell-based; conditions: isolated compounds (10 μM) and positive controls 10 μM, fMLF/CB-activated neutrophils, mean±SEM; for inhibition at 10 µM: Homo sapiens, Neutrophil, read-out: Inhibition rate (%) Elastase release
Method: as §4
The elastase release was used to measure degranulation of azurophilic granules in activated neutrophils (Yang et al., 2013); and the measurement was performed using methoxysuccinyl-Ala-Ala-Pro-Val-p-nitroaniline as an elastase matrix. At 37° C., neutrophils (6×10^5 cells/mL) were added to a mixture of matrix (100 μmol/L) and CaCl2 (1 mmol/L), and treated with the test specimens having different concentrations (that is, maca extract) or DMSO (0.1% as control) for 5 minutes, and then the cells were stimulated by using fMLF (100 nM)/CB (0.5 μg/mL), and changes in absorbance at the 405 nm wavelength were continuously monitored to measure the release of elastase, in which genistein and LY294002 were used as positive controls. The corresponding results are indicated as mean±SEM (the test was repeated 3 or 4 times), in which * denotes p<0.05, ** denotes p<0.01, *** denotes p<0.001; and - denotes being untested.

RBL-2H3 cells [4] = experiment: Anti-allergy test: A23187-induced β-hexosaminidase release; type: cell-based; conditions: for A23187-induced β-hexosaminidase release Inhibition rate (%): Table 4, isolated compounds, concentration not given (values equal 100 μM column of Table 6)
Method: (§5) Equivalently divided supernatants (50 μL) of control wells and experimental wells were incubated with an equal volume (50 μL) of […] p-NAG prepared in 0.1 M citrate buffer (pH 4.5), in which the buffer is formed as a matrix of released β-hexosaminidase; the reaction, after 1 hour incubation at 37° C., was stopped by adding 100 μL of termination buffer (0.1M Na2/NaHCO3, pH 10.0), and then, the absorbance at a wavelength of 405 nm was measured with a microplate reader. The percentage of inhibiting RBL-2H3 cells from releasing β-hexosaminidase was calculated as the percentage of control (untreated stimulated cells), and azelastine (20 μM) was used as a positive control. The test results are shown in Tables 4 to 6 below, and the corresponding results are indicated as mean±SEM (the test was repeated 3 times), wherein * denotes p<0.05, ** denotes p<0.01, *** denotes p<0.001; - denotes being untested; and N/A denotes that the specimen forms mycelium added to the medium, and accordingly, the results cannot be proven.

RBL-2H3 cells [5] = experiment: Anti-allergy test: antigen-induced β-hexosaminidase release; type: cell-based; conditions: for Antigen-induced β-hexosaminidase release Inhibition rate (%): Table 4, isolated compounds, concentration not given
Method: as §5

RBL-2H3 cells [6] = experiment: Cell viability of RBL-2H3 cells (MTT); conditions: for Viability of RBL-2H3 cells at 200 μg/ml: Table 6, isolated compounds, head prints 200 μg/ml
Method: (§6) Cells were cultured using DMEM medium supplemented with 10% FBS, and additional 100 U/mL penicillin and 100 μg/mL streptomycin. The cells were cultured in 10 cm Petri dishes in a 5% CO2 incubator at 37° C., the cells were secondary cultured in 80% confluent trypsin, and then seeded on culture plates at a density of 2×10^5 cells/mL for secretion measurement.
(§7) Measurement on cell viability: RBL-2H3 cells were seeded in a 96-well plate at a concentration of 2×10^4 cells/well overnight, specimens having different concentrations (that is, maca extract, dissolved in DMSO) or untreated controls (1% DMSO in Tyrode buffer; 135 mM NaCl, 5 mM KCl, 1.8 mM CaCl, 1.0 mM MgCl2, 5.6 mM glucose, 20 mM HEPES and 1 mg/ml BSA, pH 7.4) were used to treat the cells, the media was removed from the wells after incubation at 37° C., 5% CO2, and an MTT solution (5 mg/mL) stock solution was diluted 1:10 in the medium and then added to the wells (100 μL per well); Thereafter, the cells were incubated at 37° C., 5% CO2 for 1 hours, the medium was removed, the formed Formazan crystals (which can be formed only in normal healthy cells) were dissolved in 100 μL DMSO, and the absorbance at 574 nm wavelength was measured using a microplate reader in which the plates were gently shaked before the measurement. Cell viability values for the specimens were calculated and indicated as a percentage (%) of the control groups (untreated cells).

[7] = system: human umbilical vein endothelial cells (HUVECs); experiment: Pro-angiogenic test: HUVEC cell growth; type: cell-based; conditions: VEGF 20 ng/mL, positive control, mean±SEM
Method: as §1, §2, §3

RBL-2H3 cells [8] = system: RBL-2H3 cells
Method: as §6, §7

[9] = 50 μM of each isolated compound, 48 hours

Compound	Cell growth rate (%) EPC [1, 9] [%]	Inhibition rate (%) Superoxide anion generation (human neutrophil [2]) [%]	Inhibition rate (%) Elastase release (human neutrophil [3])	Percentage of inhibiting A23187-induced β-hexosaminidase release (%) 10 μM/mL (RBL-2H3 cells [4])	Percentage of inhibiting A23187-induced β-hexosaminidase release (%) 100 μM/mL (RBL-2H3 cells [4])	Percentage of inhibiting A23187-induced β-hexosaminidase release (%) 500 μM/mL (RBL-2H3 cells [4])	Percentage of inhibiting antigen-induced β-hexosaminidase release (%) 10 μM/mL (RBL-2H3 cells [5])	Percentage of inhibiting antigen-induced β-hexosaminidase release (%) 100 μM/mL (RBL-2H3 cells [5]) [%]	Percentage of inhibiting antigen-induced β-hexosaminidase release (%) 500 μM/mL (RBL-2H3 cells [5]) [%]	Antigen-induced β-hexosaminidase release Inhibition rate (%) (RBL-2H3 cells [5])	Viability of RBL-2H3 cells at 200 μg/ml (RBL-2H3 cells [6]) [%]	A23187-induced β-hexosaminidase release Inhibition rate (%) (RBL-2H3 cells [4])	further results
CC(=O)[C@@H]1CCC(=O)N1Cc1ccccc1 [Compound 1, (5S)-acetyl-1-benzylpyrrolidine-2-ketone]	99 ± 1	7.50 ± 1.96	1.59 ± 0.99%	2.7 ± 1.2%	4.0 ± 1.7%	38.0±3.4%	3.7 ± 1.9%	5.7 ± 2.2	9.0 ± 3.7	9.0 ± 3.7	95.3	–	–
O=c1c(-c2ccc(O)cc2)coc2cc(O)cc(O)c12 [Genistein, reference compound]	–	–	–	–	–	–	–	–	–	–	–	–	inhibition at 10 µM (human neutrophil [2]): 93.37 ± 0.93%; inhibition at 10 µM (human neutrophil [3]): 44.2 ± 3.72%
COc1cccc(Cn2c(C=O)ccc2CO)c1 [Compound 4, 5-hydroxymethyl-1-(m-methoxybenzyl)-2-aldehyde pyrrole]	103 ± 1	1.05 ± 0.78	0.00 ± 0.59%	8.3 ± 1.0%	6.7 ± 1.4%	–	16.7 ± 6.6%*	10.0 ± 4.1	–	10.0 ± 4.1	96.0	6.7 ± 1.4%	–
O=c1cc(N2CCOCC2)oc2c(-c3ccccc3)cccc12 [LY294002, reference compound]	–	–	–	–	–	–	–	–	–	–	–	–	inhibition at 10 µM (human neutrophil [2]): 95.3 ± 2.78%; inhibition at 10 µM (human neutrophil [3]): 72.8 ± 4.03%
COCc1ccc(C=O)n1Cc1ccccc1 [Compound 5, 5-methoxymethyl-1-(benzyl)-2-aldehyde pyrrole]	99 ± 5	21.59±5.35	3.33 ± 0.50** %	21.3 ± 3.3%***	51.3 ± 4.6%***	57.7 ± 4.3%***	9.0 ± 4.8%	11.7 ± 5.9	8.3 ± 3.5	11.7 ± 5.9	94.0	51.3 ± 4.6*** %	IC50 (RBL-2H3 cells [4]; Table 6, isolated compounds): 96.1 µM
CN1CCCC(n2nc(Cc3ccc(Cl)cc3)c3ccccc3c2=O)CC1 (centres unmarked) [Azelastine, reference compound]	–	–	–	–	–	–	–	–	–	–	–	–	inhibition at 20 µM (RBL-2H3 cells [4]; RBL-2H3, azelastine 20 μM, positive control, read-out: Percentage of inhibiting A23187-induced β-hexosaminidase release (%)): 47.7 ± 3.2%; inhibition at 20 µM (RBL-2H3 cells [5]; RBL-2H3, azelastine 20 μM, positive control, read-out: Percentage of inhibiting antigen-induced β-hexosaminidase release (%)): 54.3 ± 1.8%; Viability of RBL-2H3 cells (RBL-2H3 cells [6]; azelastine 20 μM): 88.0%
VEGF	–	–	–	–	–	–	–	–	–	–	–	–	Cell growth rate (%) EPC ([1]; VEGF 20 ng/mL, positive control): 128 ± 2*** %; Cell growth rate (%) HUVEC [7]: 122 ± 2*** %
N#CCc1cccc(O)c1 [Compound 8, 3-hydroxy-1-cyanomethylbenzene]	103 ± 2	–	–	–	–	–	–	–	–	–	97.7	–	inhibition at 10 µM (human neutrophil [2]): 0.45 ± 4.35%; inhibition at 10 µM (human neutrophil [3]): 1.78 ± 2.29%; inhibition at 10 µM (RBL-2H3 cells [4]; RBL-2H3, read-out: Percentage of inhibiting A23187-induced β-hexosaminidase release (%) 10 μM/mL): 11 ± 0.8%; inhibition at 100 µM (RBL-2H3 cells [4]; RBL-2H3, read-out: Percentage of inhibiting A23187-induced β-hexosaminidase release (%) 100 μM/mL): 8.3 ± 3.4%; inhibition at 500 µM (RBL-2H3 cells [4]; RBL-2H3, read-out: Percentage of inhibiting A23187-induced β-hexosaminidase release (%) 500 μM/mL): 11.7 ± 1.5%; inhibition at 10 µM (RBL-2H3 cells [5]; RBL-2H3, read-out: Percentage of inhibiting antigen-induced β-hexosaminidase release (%) 10 μM/mL): 13.7 ± 3.9%; inhibition at 100 µM (RBL-2H3 cells [5]; RBL-2H3, read-out: Percentage of inhibiting antigen-induced β-hexosaminidase release (%) 100 μM/mL): 13 ± 2.6%; inhibition at 500 µM (RBL-2H3 cells [5]; RBL-2H3, read-out: Percentage of inhibiting antigen-induced β-hexosaminidase release (%) 500 μM/mL): 4 ± 3.3%
O=Cc1ccc(CO)n1Cc1ccccc1 [Compound 6, 5-hydroxymethyl-1-(benzyl)-2-aldehyde pyrrole]	104 ± 4	5.44 ± 2.18	2.69 ± 0.49** %	5.7 ± 1.0%	9.7 ± 2.2%	26.0 ± 2.4%***	10.3 ± 3.9%	3.7 ± 3.0	0.3 ± 0.3	3.7 ± 3.0	100.0	9.7 ± 2.2%	–
O=Cc1cc[n+]([O-])cc1Cc1ccccc1 [Compound 7, 3-(benzyl)-1-(hydroxy)-4-aldehyde pyridine]	105 ± 3	10.94 ± 1.84	2.48 ± 3.05%	2.0 ± 1.6%	6.0 ± 0.8%	18.0 ± 3.4%***	11.7 ± 2.6%	8.0 ± 1.2	0.0 ± 0.0	8.0 ± 1.2	–	6.0 ± 0.8%	Viability of RBL-2H3 cells at 200 μg/ml (RBL-2H3 cells [8]): 94.7%
COCc1ccc(C=O)n1Cc1cccc(OC)c1 [Compound 3, 5-methoxymethyl-1-(m-methoxybenzyl)-2-aldehyde pyrrole]	–	–	–	3.7 ± 1.5%	4.7 ± 0.7%	12.7 ± 0.7%**	13.7 ± 1.9%	10.7 ± 3.3	5.0 ± 4.1	10.7 ± 3.3	95.0	4.7 ± 0.7%	–
